Tests used:
[1] = target: T1, human EP4 prostaglandin receptor (Homo sapiens, UniProt P35408); assay: FLIPR Ca++ flux test; assay type: cell-based; conditions: cells expressing human EP4, read-out: in vitro EC50 (concentration at 50% of maximal efficacy)
T1 construct: expressed in transfected cells; host or cells: HEK-EBNA cells
Experimental: HEK-293 (EBNA) cells, stably expressing one type or subtype of recombinant human prostaglandin receptors (prostaglandin receptors expressed: hDP/Gqs5; hEP1; hEP2/Ggs5; hEP3A/Gqi5; hEP4/Ggs5; hFP; hIP; hTP), are cultured in 100 mm culture dishes in high-glucose DMEM medium containing 10% fetal bovine serum, 2 mM 1-glutamine, 250 μg/ml geneticin (G418) and 200 μg/ml hygromycin B as selection markers, and 100 units/ml penicillin G, 100 μg/ml streptomycin and 0.25 μg/ml amphotericin B.
Transfectant cells are seeded at a density of 5×10^4 cells per well in Biocoat®. Poly-D-lysine-coated black-wall, clear-bottom 96-well plates (Becton-Dickinson) and allowed to attach overnight in an incubator at 37° C. Cells are then washed two times with HBSS-HEPES buffer (Hanks Balanced Salt Solution without bicarbonate and phenol red, 20 mM HEPES, pH 7.4) using a Denley Cellwash plate washer (Labsystems). […]
Cells are excited with an Argon laser at 488 nm, and emission measured through a 510-570 nm bandwidth emission filter (FLIPR.™., Molecular Devices, Sunnyvale, Calif.). […] The peak increase in fluorescence intensity is recorded for each well. […] The peak fluorescence change in each drug-containing well is then expressed relative to the controls. […]

[2] = target: T1, human EP4 prostaglandin receptor; assay: Activity test measuring changes in intracellular cAMP in HEK-EBNA cells; assay type: cell-based; conditions: HEK-EBNA cells expressing human EP4, read-out: in vitro EC50 (concentration at 50% of maximal efficacy)
Experimental: The dosage of the prostaglandin EP4 agonist component employed in accordance with the present invention varies over a relatively wide range and depends on factors well known in the medicinal arts including, but not limited to: the weight of the individual to whom the agonist component is administered, the general health status/condition of such individual, the disease/condition sought to be treated/prevented by such administration, the severity of such disease/condition in such individual, the potency of the specific EP4 receptor agonist component being administered, the sensitivity of such individual to the specific agonist component being administered, the mode of administration, the age of such individual, the sex of such individual, the pregnancy status of such individual, the other ongoing drug therapies being administered to such individual and the like factors. The compound (Z)-7-{(1R,4S,5R)-5-[(E)-5-(3-chloro-benzo[b]thiophene-2-yl)-3-hydroxy-pent-1-enyl]-4-hydroxy-3,3-dimethyl-2-oxo-cyclopentyl}-hept-5-enoic acid has an in vitro EC50 (concentration at 50% of maximal efficacy) of between 0.03 and 0.1 nM in both the FLIPR® Ca^++ flux test and in an alternate activity test measuring changes in the intracellular concentration of cAMP in HEK-EBNA cells expressing the human EP4 prostaglandin receptor.

[3] = tested on: PI3k/Akt pathway (Akt phosphorylation) in IEC-18 cells; assay: Akt phosphorylation Western blot in IEC-18 cell lysates; assay type: cell-based, rat; conditions: 24 hours; for Akt phosphorylation: 5 μM SC-560, 10 μM celecoxib or 10 μM indomethacin
Experimental: Rat intestinal epithelial cells (IEC-18 cells) are immortalized normal epithelial cells purchased from the American Type Culture Collection (ATCC). For these experiments, IEC-18 cells were cultured in high glucose Delbecco's Modified Eagle's Medium (DMEM) at 37° C. under 5% CO2 and incubated for 24 hours with either a) 5 μM of the COX-1 inhibitor SC-560 (purchased from Sigma-Aldrich, St. Louis, Mo.), 10 μM of the COX-2 inhibitor celecoxib, or 10 μM of the COX-½ inhibitor indomethacin. Drugs were provided in a 0.1% dimethylsulfoxide (DMSO) vehicle.
The PI3k/Akt pathway is monitored using the following general assay procedure. Following incubation cell lysates are collected with lysis buffer containing phosphatase and proteinase inhibitors. The supernanats are collected and protein concentrations are measured. Then SDS(sodium dodecyl sulfate) sample buffers are made to make sure final protein concentration is equal in each sample and boiled for minutes at 100° C. Then the samples are loaded on to a 4%-12% pre-made SDS-PAGE (polyacrylamide gel electrophoresis) and the gel is developed under electrophoresis. When the samples reach the bottom of the gel, the gel is removed from the electrophoresis equipment and transferred to a nitrocellulose membrane and the membrane blocked with milk. The membrane is incubated with a primary antibody selective for either a) total Akt or b) phosphrylated Akt overnight at 4° C. A secondary antibody having a conjugated horseradish peroxidase (HRP) moiety is used to bind the constant regions of the primary antibodies. The membrane is washed under conditions favoring selective antibody binding. Finally, the HRP is detected using a enzymatically initiated chemiluminescent substrate such as Super Signal® ELISA Pico Substrates, available from Thermo Fisher Scientific.

IEC-18 cells = assay: Doxorubicin/celecoxib-induced apoptosis of IEC-18 cells by flow cytometry; assay type: cell-based, rat; conditions: 48 hours
Experimental: IEC-18 cells were cultured in high glucose DMEM containing 10% fetal bovine serum (FBS), 1% penicillin, 1% streptomycin, and 50 unit insulin essentially as indicated in Example 101 for 48 hours in the presence of the 0.05 μg/ml chemotherapy agent doxorubicin to induce apoptosis. In the presence of 10 μM celecoxib (which inhibits endogenous prostaglandin PGE2 expression), apoptosis of doxorubicin-treated IEC-18 cells proceeds within 48 hours at such very low concentrations of doxorubicin. Finally, the cells collected by trypsin were subjected to flow cytometry analysis for identification of the percentage of cells in different stages of the cell cycle.
Cultured cells were prepared for flow cytometry by trypsinization and centrifugation. The cells were then washed with cold phosphate buffered saline solution (PBS), then fixed with cold 70% ethanol overnight. The cells were then again washed with PBS and stained with propidium iodide, a nucleic acid intercalating dye, in the presence of RNase for 30 minutes at room temperature. The cells were then sorted using the buffer provided by Becton-Dickenson, the maker of the flow cytometry equipment.
Additionally, using CellQuest® software (Becton-Dickenson) a quantification of the percent of apoptosis occurring in IEC-18 cells after 48 hours' incubation was performed. […]

C57BL/6 mice [4] = assay: Acetic acid-induced gastric ulcer model in mice; assay type: in vivo
Excerpt: Gastric ulcers were produced in C57BL/6 mice by using 40% acetic acid as follows. Animals were anesthetized. The abdomen of each animal was surgically opened, and the stomach exposed. A 3 mm curette was placed onto the anterior surface of each stomach. A solution of 40% acetic acid was placed inside the curette. The curette prevents damage to surrounding tissue. The acetic acid treatment causes damage to blood vessels of the stomach, producing chemical death to the mucous layer.
On the third day following induction of ulceration, the animals were given various treatments by oral gavage. First, vehicle (4% DMSO-corn oil) or a low dose (3 mg/kg/day) of indomethacin in 4% DMSO-corn oil was used. This dose of indomethacin has been reported not to induce gross lesions on the stomach, although it can inhibit the production of endogenous prostglandin PGE2.
On day 7 blood was withdrawn for hematology analysis from sacrificed animals, and subjected to automated testing for standard hematological parameters. Ulcer areas (defined as the regions of the stomach not covered by stomach mucosal epithelial cells) were measured by dissection microscopy for macroscopic analysis; additionally, the widest section of each ulcer sample was measured and observed as the size index under microscopy. The stomachs were processed for pathological analysis by dissection and section through the widest part of the ulcer. Sections were stained using hematoxylin & eosin.
Mice were then treated with 10 nM Compound 7 or the vehicle under otherwise identical conditions. In this experiment the vehicle was 4% DMSO in corn oil in a volume of 0.1 ml. The mice were sacrificed and the stomachs examined on either the 7th day or the 11th day following ulceration. […] Under dissection microscopy, the areas of the ulcers in mice treated with Compound 7 were 60% and 32% of the control on days 7 and 11, respectively. […] (FIG. 4B).

C57BL/6 mice [5] = assay: Acetic acid-induced gastric ulcer model in mice; assay type: in vivo; remark: listed apart in the source
[6] = 0.1 mg/kg/d Compound 7 + 3 mg/kg/d indomethacin vs control mice
[7] = indomethacin 3 mg/kg/day oral gavage, day 7, vs vehicle

T1 sequence (P35408 whole entry): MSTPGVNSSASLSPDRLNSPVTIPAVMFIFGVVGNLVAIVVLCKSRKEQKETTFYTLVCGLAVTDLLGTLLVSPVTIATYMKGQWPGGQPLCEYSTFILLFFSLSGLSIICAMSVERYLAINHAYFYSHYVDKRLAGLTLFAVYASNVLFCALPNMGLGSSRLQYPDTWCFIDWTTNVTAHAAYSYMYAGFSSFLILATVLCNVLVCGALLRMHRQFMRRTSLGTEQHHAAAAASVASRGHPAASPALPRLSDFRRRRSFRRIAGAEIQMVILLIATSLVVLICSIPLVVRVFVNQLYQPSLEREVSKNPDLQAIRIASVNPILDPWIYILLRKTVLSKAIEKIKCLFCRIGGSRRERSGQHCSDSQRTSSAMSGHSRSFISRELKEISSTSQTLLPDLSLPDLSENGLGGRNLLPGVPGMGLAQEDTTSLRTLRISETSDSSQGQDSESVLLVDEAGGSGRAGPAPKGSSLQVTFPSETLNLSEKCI

Question: `CC1(C)C(=O)[C@H](C/C=C\CCCC(=O)O)[C@@H](/C=C/C(O)CCc2sc3ccccc3c2Cl)[C@@H]1O` (stereo partly drawn) [Compound 7, (Z)-7-{(1R,4S,5R)-5-[(E)-5-(3-chloro-benzo[b]thiophene-2-yl)-3-hydroxy-pent-1-enyl]-4-hydroxy-3,3-dimethyl-2-oxo-cyclopentyl}-hept-5-enoic acid] was tested. Which EC50 [1] did it give?
Answer: 30 to 100 pM

Question: And the EC50 [2]?
Answer: 30 to 100 pM

Question: What about the “Akt phosphorylation on co-incubation with indomethacin” value ([3]; 10 nM Compound 7 + 10 μM indomethacin vs indomethacin alone) of the same compound?
Answer: maintained Akt phosphorylation at higher levels

Question: What about the percent apoptosis (IEC-18 cells; 10 nM Compound 7 added to 0.05 μg/ml doxorubicin + 10 μM celecoxib) of the same compound?
Answer: approximately 5%

Question: What about the “ulcer sizes vs vehicle” value (C57BL/6 mice [4]; 10 nM Compound 7, vehicle 4% DMSO in corn oil, day 7 or 11) of the same compound?
Answer: significantly smaller ulcer sizes

Question: What about the “areas of the ulcers under dissection microscopy” value (C57BL/6 mice [4]; Compound 7, day 7) of the same compound?
Answer: 60 % of the control

Question: What about the “areas of the ulcers under dissection microscopy” value (C57BL/6 mice [4]; Compound 7, day 11) of the same compound?
Answer: 32 % of the control

Question: What about the “inflammatory cell infiltrations and necrotic tissue in granulation tissue” value (C57BL/6 mice [4]; Compound 7 vs control group) of the same compound?
Answer: significantly less

Question: And the “gross and microscopic morphologies of the ulcer tissue” value (C57BL/6 mice [4]; Compound 7 vs vehicle, day 7)?
Answer: stimulates healing of ulcer and facilitate the removal of necrosis tissue

Question: And the “hematocrit (HCT)” value (C57BL/6 mice [5]; [6])?
Answer: significantly greater

Question: What about the “hemoglobin (HGB)” value (C57BL/6 mice [5]; [6]) of the same compound?
Answer: significantly greater

Question: And the “number of red blood cells (RBC)” value (C57BL/6 mice [5]; 0.1 mg/kg/d Compound 7 + 3 mg/kg/d indomethacin vs control mice, n=20)?
Answer: significantly greater

Question: And the “blood loss (hematology)” value (C57BL/6 mice [5]; 0.1 mg/kg/d Compound 7 + 3 mg/kg/d indomethacin vs indomethacin alone)?
Answer: significantly less blood loss

Question: How did the Akt phosphorylation [3] turn out when `COc1ccc2c(c1)c(CC(=O)O)c(C)n2C(=O)c1ccc(Cl)cc1` [indomethacin, reference compound] was run?
Answer: inhibited phosphorylation of Akt to a greater extent that did SC-560 or celecoxib

Question: And the “spontaneous healing of gastric ulcers (gross and microscopic ulcer size)” value (C57BL/6 mice [4]; indomethacin 3 mg/kg/day oral gavage from day 3, day 7, vs vehicle)?
Answer: delayed the spontaneous healing of gastric ulcers

Question: And the “blood loss at ulcer sites” value (C57BL/6 mice [4]; [7])?
Answer: exacerbate blood loss at ulcer sites

Question: And the “inflammation (lymphocytes in the blood)” value (C57BL/6 mice [4]; [7])?
Answer: exacerbated inflammation

Question: `COc1ccc(-n2nc(C(F)(F)F)cc2-c2ccc(Cl)cc2)cc1` [SC-560] was tested. Which Akt phosphorylation [3] did it give?
Answer: inhibited Akt phosphorylation

Question: For `COc1cccc2c1C(=O)c1c(O)c3c(c(O)c1C2=O)C[C@@](O)(C(=O)CO)C[C@@H]3O[C@H]1C[C@H](N)[C@H](O)[C@H](C)O1` [doxorubicin, reference compound], which percent apoptosis (IEC-18 cells; 0.05 μg/ml doxorubicin with 10 μM celecoxib) is on record?
Answer: about 13%

— patent US20100081631A1, “METHODS AND COMPOSITIONS FOR TREATING GASTROINTENSTIAL DISORDERS” (priority 2006, published 2010)
